pIC50: −log10 of the molar value. One block for each molecule: values may come before it.
Legend:
[1] = tested on: IL-15 induced P-STAT5 in human PBMC; test: PBMC IL-15 Induced P-STAT5; assay type: cell-based; settings: human PBMC, IL-15 final 41 ng/mL; read-out: PBMC IL15_pSTAT5_IC50
Experimental: PBMC IL-15 Induced P-STAT5
Test compounds were serially diluted in DMSO, with further dilution of the compounds in RPMI 1640 medium (Invitrogen #72400) supplemented with 10 mM HEPES, pH 7.4, 1 mM sodium pyruvate, and Penicillin/Streptomycin (by adding 5 μL compound/DMSO in 120 μL Dulbecco's Phosphate-Buffered Saline (D-PBS, 1×), [DMSO]=4%, and mixing the solution by repeated pipetting, 6×). IL-15 was diluted to the concentration at 820 ng/mL in RPMI 1640 medium.
Frozen human PBMC (200-250 million cells/vial) was thawed at 37° C. The cells were transferred to 10 mL warm medium in a 50-mL conical tube, and centrifuged at 1,200 RPM at room temperature for 5 min. The supernatant was aspirated. Cells were suspended in 3 mL warm human plasma and incubated at 37° C. in a tissue culture incubator for 1.5 to 2 h. After adding 47 ml D-PBS (37° C.) to PBMC/FBS suspension, centrifuging at 1,200 RPM at room temperature for 5 min, and aspirating the supernatant, the cells were resuspended in 20 mL warm RPMI medium. Ninety μL of cell suspension were pipetted per well in a 96-well, deep-well, V-bottom plate, and the plate was incubated at 37° C. for 30 min. Five μL of compound were transferred to each well (final 0.2% DMSO), vortex gently and incubate at 37° C. for 15 min; 5 μL 4% DMSO/PBS were added to the control wells. After adding 5 μL 820 ng/mL of human IL-15 (final 41 ng/mL) to each well (5 μL PBS to the control wells), vortexing gently and incubating at 37° C. for 15 min, followed by 0.3 mL 1% paraformaldehyde/PBS (37° C.) to each well, and incubating the plate at room temperature for 15 min, the plates were centrifuged at 1,200 RPM (Beckman GS-6R or Sorvall Legend) at room temperature for 5 min, and the supernatant was aspirated using a 8-channel or 12-channel manifold. After adding 0.8 mL staining buffer per well, the plates were centrifuged at 1,200 RPM (Beckman GS-6R or Sorvall Legend) at room temperature for 5 min, and again the supernatant was aspirated using a 8-channel or 12-channel manifold. The plate was vortexed, and 0.35 mL 90% methanol/10% H2O (−20° C.) was added per well, and the plate incubated on ice for 20 min. After again adding 0.8 mL staining buffer per well, the plates were centrifuged at 1,200 RPM (Beckman GS-6R or Sorvall Legend) at room temperature for 5 min, and again the supernatant was aspirated using a 8-channel or 12-channel manifold, and then 0.8 mL Staining buffer was added per well. After once again adding 0.8 mL staining buffer per well, the plates were centrifuged at 1,200 RPM (Beckman GS-6R or Sorvall Legend) at room temperature for 5 min, and again the supernatant was aspirated using a 8-channel or 12-channel manifold. Then the plate was vortexed, and 250 μL/well of Alexa Fluor® 647 conjugated anti-STAT5 antibody ([…]; […]) was added, and the plate was incubated at 4° C. overnight in the dark. Samples of 250 μL/well were transferred to a 96-well U-bottom plate, and the FACS analysis was performed gating on total lymphocytes. Samples were analyzed using a BD Calibur™ or BD FACSCanto™ flow cytometer equipped with the BD High Throughput Sampler.

JAK3 enzyme [2] = target: T1, JAK3 enzyme (Homo sapiens, UniProt P52333); test: JAK Caliper Enzyme Assay at 1 mM ATP; assay type: biochemical
T1 sequence (P52333 1-1124): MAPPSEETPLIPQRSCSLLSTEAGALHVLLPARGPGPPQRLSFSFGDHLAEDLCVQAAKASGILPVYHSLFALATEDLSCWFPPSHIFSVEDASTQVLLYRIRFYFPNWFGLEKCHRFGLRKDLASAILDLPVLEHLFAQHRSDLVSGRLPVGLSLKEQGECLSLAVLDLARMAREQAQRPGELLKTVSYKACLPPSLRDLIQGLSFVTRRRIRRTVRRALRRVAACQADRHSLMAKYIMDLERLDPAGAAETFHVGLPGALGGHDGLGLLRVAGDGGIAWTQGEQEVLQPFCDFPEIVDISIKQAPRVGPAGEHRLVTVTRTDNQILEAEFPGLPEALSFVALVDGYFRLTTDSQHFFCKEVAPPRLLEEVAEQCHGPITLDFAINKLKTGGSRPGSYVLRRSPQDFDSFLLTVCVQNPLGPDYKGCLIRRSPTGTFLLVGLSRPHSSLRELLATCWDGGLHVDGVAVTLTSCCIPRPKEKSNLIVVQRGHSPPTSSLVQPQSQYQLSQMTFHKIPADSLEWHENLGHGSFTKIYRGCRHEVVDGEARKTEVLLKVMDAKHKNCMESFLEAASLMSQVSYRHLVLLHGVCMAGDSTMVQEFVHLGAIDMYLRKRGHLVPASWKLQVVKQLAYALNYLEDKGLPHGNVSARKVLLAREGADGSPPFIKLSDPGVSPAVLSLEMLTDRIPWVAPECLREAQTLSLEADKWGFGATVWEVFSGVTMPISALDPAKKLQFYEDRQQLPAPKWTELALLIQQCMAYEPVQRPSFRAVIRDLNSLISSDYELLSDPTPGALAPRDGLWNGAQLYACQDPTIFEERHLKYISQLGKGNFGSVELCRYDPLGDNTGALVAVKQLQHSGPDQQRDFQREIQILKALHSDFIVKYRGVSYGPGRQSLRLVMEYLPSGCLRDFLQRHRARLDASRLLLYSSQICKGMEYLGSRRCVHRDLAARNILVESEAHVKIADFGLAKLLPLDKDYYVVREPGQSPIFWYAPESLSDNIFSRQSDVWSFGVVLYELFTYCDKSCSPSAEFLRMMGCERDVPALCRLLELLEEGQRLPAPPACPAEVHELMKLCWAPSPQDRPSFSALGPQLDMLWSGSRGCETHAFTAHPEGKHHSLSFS
In short: (§1)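 First, compound stocks in DMSO were serially diluted half-log over 11 points, starting at 600 μM. Next, reactions ran with batch-optimized enzyme and timing targeting 20%-30% phosphorylation. Finally, wells were sampled and product separated from substrate peptide electrophoretically.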

JAK3 enzyme [3] = target: T1, JAK3 enzyme; test: JAK Caliper Enzyme Assay at 4 μM ATP; assay type: biochemical
In short: as §1

SMILES: C=CC(=O)N1CC[C@@H](Nc2cnc3[nH]cc(C(=O)NCC)c3n2)[C@H](OC)C1 (racemic) [Example 25, Trans-racemic-2-{[1-acryloyl-3-methoxypiperidin-4-yl]amino}-N-ethyl-5H-pyrrolo[2,3-b]pyrazine-7-carboxamide]
pIC50 [1]: 5.80
pIC50 (JAK3 enzyme [2]): 7.04
pIC50 (JAK3 enzyme [3]): 8.88

SMILES: C=CC(=O)N1CC[C@@H](Oc2cnc3[nH]cc(C(=O)NCC)c3n2)[C@H](C)C1 (racemic) [Example 46, Trans-racemic-2-{[1-acryloyl-3-methylpiperidin-4-yl]oxy}-N-ethyl-5H-pyrrolo[2,3-b]pyrazine-7-carboxamide]
pIC50 [1]: 6.06
pIC50 (JAK3 enzyme [2]): 6.68
pIC50 (JAK3 enzyme [3]): 8.47

SMILES: C=CC(=O)N1C[C@@H](Nc2ncnc3[nH]ccc23)C[C@@H](C(=O)N(C)C)C1 (racemic) [Example 94]
pIC50 [1]: 5.97
pIC50 (JAK3 enzyme [2]): 6.83
pIC50 (JAK3 enzyme [3]): 9.10

SMILES: C=CC(=O)N1C[C@H](Nc2ncnc3[nH]ccc23)CC[C@@H]1[C@H](C)O (racemic) [Example 112]
pIC50 [1]: 5.99
pIC50 (JAK3 enzyme [2]): 6.74
pIC50 (JAK3 enzyme [3]): 8.99

SMILES: C[C@H]1CC[C@@H](Nc2ncnc3[nH]ccc23)CN1C(=O)C1CO1 (mixture of isomers) [Example 132, Racemic-[(2S,5R)-2-methyl-5-(7H-pyrrolo[2,3-d]pyrimidin-4-ylamino)piperidin-1-yl](oxiran-2-yl)methanone]
pIC50 [1]: 6.28
pIC50 (JAK3 enzyme [2]): 6.59
pIC50 (JAK3 enzyme [3]): 8.78

SMILES: C=CC(=O)N1CCN(c2cnc3[nH]cc(C(=O)NC(COC)COC)c3n2)CC1(C)C (racemic) [Example 140, Racemic-2-(4-acryloyl-3,3-dimethylpiperazin-1-yl)-N-(1,3-dimethoxypropan-2-yl)-5H-pyrrolo[2,3-b]pyrazine-7-carboxamide]
pIC50 [1]: 5.77
pIC50 (JAK3 enzyme [2]): 6.42
pIC50 (JAK3 enzyme [3]): 8.57

SMILES: C=CC(=O)N1CCN(c2cnc3[nH]cc(C(=O)NC(CC)COC)c3n2)CC1(C)C (racemic) [Example 141, Racemic-2-(4-acryloyl-3,3-dimethylpiperazin-1-yl)-N-(1-methoxybutan-2-yl)-5H-pyrrolo[2,3-b]pyrazine-7-carboxamide]
pIC50 [1]: 6.46
pIC50 (JAK3 enzyme [2]): 6.99
pIC50 (JAK3 enzyme [3]): 9.10

SMILES: C=CC(=O)N1CCC(Oc2cnc3[nH]cc(C(=O)NCC4(O)CCCC(F)(F)C4)c3n2)CC1 (racemic) [Example 223, Racemic-2-[(1-acryloylpiperidin-4-yl)oxy]-N-[(3,3-difluoro-1-hydroxycyclohexyl)methyl]-5H-pyrrolo[2,3-b]pyrazine-7-carboxamide]
pIC50 [1]: 5.48
pIC50 (JAK3 enzyme [2]): 6.46
pIC50 (JAK3 enzyme [3]): 8.38

SMILES: C=CC(=O)N1CCC(Oc2cnc3[nH]cc(C(=O)NCC4CCC4)c3c2)CC1 [Example 345, 5-[(1-acryloylpiperidin-4-yl)oxy]-N-(cyclobutylmethyl)-1H-pyrrolo[2,3-b]pyridine-3-carboxamide]
pIC50 (JAK3 enzyme [2]): 5.40
pIC50 (JAK3 enzyme [3]): 7.36

SMILES: C=CC(=O)N1CCC(Oc2cnc3[nH]cc(C(=O)NCCC)c3c2)CC1 [Example 347, 5-[(1-acryloylpiperidin-4-yl)oxy]-N-propyl-1H-pyrrolo[2,3-b]pyridine-3-carboxamide]
pIC50 (JAK3 enzyme [2]): 5.51
pIC50 (JAK3 enzyme [3]): 7.62

SMILES: C=CC(=O)N1CCC(Nc2cnc3[nH]cc(C(=O)NCC)c3c2)CC1 [Example 352, 5-((1-acryloylpiperidin-4-yl)amino)-N-ethyl-1H-pyrrolo[2,3-b]pyridine-3-carboxamide]
pIC50 (JAK3 enzyme [2]): 5.35
pIC50 (JAK3 enzyme [3]): 7.28

Now from value to molecule, other results behind:

pIC50 (JAK3 enzyme [2]): 6.73
pIC50 (JAK3 enzyme [3]): 8.77
SMILES: C=CC(=O)N1C[C@@H](CO)C[C@@H](Nc2ncnc3[nH]ccc23)C1 (racemic) [Example 97, racemic-1-((3R,5S)-3-((7H-pyrrolo[2,3-d]pyrimidin-4-yl)amino)-5-(hydroxymethyl)piperidin-1-yl)prop-2-en-1-one]
pIC50 [1]: 5.97

pIC50 (JAK3 enzyme [2]): 6.49
pIC50 (JAK3 enzyme [3]): 8.55
SMILES: C=CC(=O)N1CCC(Oc2cnc3[nH]cc(C(=O)NCC4(O)CCCC4)c3n2)CC1 (racemic) [Example 206, Racemic-2-[(1-acryloylpiperidin-4-yl)oxy]-N-[(1-hydroxycyclopentyl)methyl]-5H-pyrrolo[2,3-b]pyrazine-7-carboxamide]
pIC50 [1]: 5.51

pIC50 (JAK3 enzyme [2]): 6.46
pIC50 (JAK3 enzyme [3]): 8.51
SMILES: C=CC(=O)N1CCC(Oc2cnc3[nH]cc(C(=O)NC(CC)C4(O)CCC4)c3n2)CC1 (racemic) [Example 213, Racemic-2-[(1-acryloylpiperidin-4-yl)oxy]-N-[1-(1-hydroxycyclobutyl)propyl]-5H-pyrrolo[2,3-b]pyrazine-7-carboxamide]
pIC50 [1]: 5.76

pIC50 (JAK3 enzyme [2]): 5.31
pIC50 (JAK3 enzyme [3]): 7.12
SMILES: C=CC(=O)N1CCC(Oc2cnc3[nH]cc(C(=O)NCC4CC4)c3c2)CC1 [Example 343, 5-[(1-acryloylpiperidin-4-yl)oxy]-N-(cyclopropylmethyl)-1H-pyrrolo[2,3-b]pyridine-3-carboxamide]

pIC50 (JAK3 enzyme [2]): 5.60
pIC50 (JAK3 enzyme [3]): 7.57
SMILES: C=CC(=O)N1CCC(Oc2cnc3[nH]cc(C(=O)N[C@H]4CC[C@@H](F)C4)c3c2)CC1 [Example 344, 5-[(1-acryloylpiperidin-4-yl)oxy]-N-[(1S,3R)-3-fluorocyclopentyl]-1H-pyrrolo[2,3-b]pyridine-3-carboxamide]

pIC50 (JAK3 enzyme [2]): 5.35
pIC50 (JAK3 enzyme [3]): 7.39
SMILES: C=CC(=O)N1CCC(Oc2cnc3[nH]cc(C(=O)NCc4ccccc4F)c3c2)CC1 [Example 346, 5-[(1-acryloylpiperidin-4-yl)oxy]-N-(2-fluorobenzyl)-1H-pyrrolo[2,3-b]pyridine-3-carboxamide]

pIC50 (JAK3 enzyme [2]): 5.93
pIC50 (JAK3 enzyme [3]): 7.99
SMILES: C=CC(=O)N1CCC(Oc2cnc3[nH]cc(C(=O)NCCCC)c3c2)CC1 [Example 348, 5-[(1-acryloylpiperidin-4-yl)oxy]-N-butyl-1H-pyrrolo[2,3-b]pyridine-3-carboxamide]

Reference: patent US10703756B2, “Pyrrolo[2,3-D]pyrimidinyl, pyrrolo[2,3-B]pyrazinyl, pyrrolo[2,3-B]pyridinyl acrylamides and epoxides thereof” (Pfizer Inc., priority 2015, dated 2020)
